The assay relates to angiotensin II-induced pressor responses. Briefly: Test C: antagonism of angiotensin II-induced pressor responses in terminally-anaesthetised or conscious rats. The class given is in vivo. The settings on record: Rattus norvegicus, iv; i.v. administration; read-out: ED₅₀. Here is the method: This in vivo test involves using terminally-anaesthetised or conscious rats in which an arterial catheter has been implanted under anaesthesia for the measurement of changes in blood pressure. The AII antagonistic effects of the test compound following oral or parenteral administration, are assessed against angiotensin II-induced pressor responses. To ensure that the effect is specific, the effect of the test compound on vasopressin-induced pressor responses may also be determined in the same preparation.

Molecules are shown by their SMILES.

Take `Cc1cc(OCc2ccc(-c3ccccc3-c3nnn[nH]3)cc2)c2ccccc2n1.Cl` [2-methyl-4-[(2′-(1H-tetrazol-5-yl)biphenyl-4-yl)methoxy]quinoline hydrochloride]: the ED50 stood at 0.5 mg/kg.
